# Source: patent publication US20220249643A1, “ANTI-NEOPLASTIC COMBINED PHARMACEUTICAL COMPOSITION AND APPLICATION THEREOF” (priority 2019, published 2022)
# “Also recorded” adds a separate entry of the source. Where two headings read alike, the source gives them in different places.
# Tests used:
# [1] = system: mouse Lewis lung carcinoma (LLC); assay type: in vivo, C57BL/6 mice; details: vs Con
# [2] = system: mouse Lewis lung carcinoma (LLC); assay type: in vivo, C57BL/6 mice; details: for Significance, survival (intergroup comparison): vs Con
# Plasmodium yoelii = assay: Infection rate of Plasmodium (parasitemia) in tumor-bearing mice, Plasmodium yoelii; assay type: in vivo
# [3] = assay type: in vivo, C57BL/6 mice
# Text: The effects of the chemotherapeutic agent and Plasmodium infection on the weight of tumor-bearing mice were observed.
# [4] = Example 5, CTX 20 mg/kg×3 ip day 6, 13, 20, Py day 7
# [5] = Example 6, CTX 20 mg/kg×3 ip day 6, 13, 20, Pc day 7
# [6] = Example 1, GEM 100 mg/kg ip on day 3
# [7] = Example 1, GEM 100 mg/kg ip on day 6
# [8] = Example 2, GEM divided 50 mg/kg ip day 6 and day 13
# [9] = Example 2, GEM single dose 100 mg/kg ip day 6
# [10] = Example 3, GEM 50 mg/kg ip day 6 and day 13, Py day 7
# [11] = Example 4, GEM 50 mg/kg ip day 6 and day 13, Pc day 7
# Experimental for Plasmodium chabaudi: (III) Preparation of thin blood film and microscopic examination: about 1-1.5 μL of blood was collected from tails of mice and smeared on slides so that a long tongue-shaped thin blood film with a length of 2.5 cm was prepared and blow-dried with a blower. The blood film was infiltrated with methanol for 1 min, stained with 1× Giemsa stain for 30 min, rinsed with tap water and blow-dried. The infection rate of Plasmodium was observed by a 100× oil immersion objective. Changes of the infection rate of Plasmodium were observed.
# (V) Inoculation of tumor-bearing mice: 7 days after tumor was subcutaneously inoculated, each mouse was inoculated with 0.2 mL of Plasmodium, that is, 5×10^5 Plasmodium parasites.
# (III) Statistics of the infection rate of Plasmodium: the infection rate of Plasmodium was evaluated by a percentage of red blood cells infected with Plasmodium in mice, where the calculation formula was (the number of red blood cells infected with Plasmodium/a total number of red blood cells)×100%. Specific procedures were as follows: blood was taken from tail veins and smeared on a slide, fixed with methanol, and stained with Giemsa stain. The number of red blood cells infected with Plasmodium and the total number of red blood cells were observed under a microscope. The total number of red blood cells was about 1000.
smiles,measurement,setting,value
"Nc1nc2[nH]cc(CCc3ccc(C(=O)N[C@@H](CCC(=O)O)C(=O)O)cc3)c2c(=O)[nH]1 [PEM, pemetrexed]","Significance, tumor growth (intergroup comparison)","[1]; Example 7, PEM 20 mg/kg×6 ip day 3, 7, 10, 14, 17, 21, Py day 7",** (“**” represents p<0.01)
same,median survival time,"[2]; Example 7, PEM 20 mg/kg×6 ip, Py day 7",32.5 days
same,effect on Plasmodium infection,"Plasmodium yoelii; Example 7, PEM 20 mg/kg×6 ip",relatively small effect on Plasmodium; also recorded: no inhibitory effect on Plasmodium yoelii
CC(=O)O[C@@]12CO[C@@H]1C[C@H](O)[C@@]1(C)C(=O)[C@H](O)C3=C(C)[C@@H](OC(=O)[C@H](O)[C@@H](NC(=O)OC(C)(C)C)c4ccccc4)C[C@@](O)([C@@H](OC(=O)c4ccccc4)[C@H]21)C3(C)C [docetaxel],effect on Plasmodium infection,"Plasmodium yoelii; Example 10, DTX high dosage 2 mg/kg×3",significantly inhibit Plasmodium
same,effect on Plasmodium infection,"Plasmodium yoelii; Example 10, DTX low dosage 2.2 mg/kg×3",relatively small effect on Plasmodium
same,effect on Plasmodium infection,"Plasmodium yoelii; Example 10, DTX medium dosage 6.7 mg/kg×3",significantly inhibit Plasmodium
same,effect on weight of tumor-bearing mice,"[3]; Example 10, in the combined therapy, DTX high dosage",very significant effect in reducing the weight of the tumor-bearing mice
same,effect on weight of tumor-bearing mice,"[3]; Example 10, in the combined therapy, DTX low dosage",relatively small effects
same,effect on weight of tumor-bearing mice,"[3]; Example 10, in the combined therapy, DTX medium dosage",relatively small effects
CO[C@@]12[C@H](COC(N)=O)C3=C(C(=O)C(C)=C(N)C3=O)N1C[C@@H]1N[C@@H]12 [mitomycin],effect on Plasmodium infection,"Plasmodium yoelii; Example 9, MMC low, medium, high dosage, the higher concentration, the more obvious",certain inhibitory effect on Plasmodium
same,effect on weight of tumor-bearing mice,"[3]; Example 9, three combined treatment groups",affected little
"O=P1(N(CCCl)CCCl)NCCCO1 (centres unmarked) [CTX, cyclophosphamide]","Significance, tumor growth (intergroup comparison)",[1]; [4],* (“*” represents p<0.05)
same,"Significance, tumor growth (intergroup comparison)",[1]; [5],* (“*” represents p<0.05)
same,median survival time,[2]; [4],37 days
same,"Significance, survival (intergroup comparison)",[2]; Example 5,** (“**” represents p<0.01)
same,median survival time,[2]; [5],39.5 days
same,"Significance, survival (intergroup comparison)",[2]; Example 6,* (“*” represents p<0.05)
same,effect on Plasmodium infection,"Plasmodium yoelii; Example 5, CTX 20 mg/kg×3 ip",relatively small effect on Plasmodium
same,effect on weight of tumor-bearing mice,"[3]; Example 5, CTX 20 mg/kg×3 ip, Py day 7",affected little
same,effect on weight of tumor-bearing mice,"[3]; Example 6, CTX 20 mg/kg×3 ip, Pc day 7",affected little
same,effect on Plasmodium infection,"Plasmodium chabaudi; Example 6, CTX 20 mg/kg×3 ip",relatively small effect on Plasmodium chabaudi
"[NH2][Pt]([NH2])([Cl])[Cl] [DDP, cis-platinum]","Significance, tumor growth (intergroup comparison)","[1]; Example 8, DDP 1 mg/kg×7 ip every two days from day 7, Py day 7",** (“**” represents p<0.01)
same,median survival time,"[2]; Example 8, DDP 1 mg/kg×7 ip, Py day 7",30 days
same,effect on Plasmodium infection (parasitemia),"Plasmodium yoelii; Example 8, DDP 1 mg/kg×7 ip, vs single Plasmodium yoelii group",inhibitory effect on Plasmodium
"Nc1ccn([C@@H]2O[C@H](CO)[C@@H](O)C2(F)F)c(=O)n1 [GEM, gemcitabine]","Significance, tumor growth (intergroup comparison)",[1]; [6],** (“**” represents p<0.01)
same,"Significance, tumor growth (intergroup comparison)",[1]; [7],** (“**” represents p<0.01)
same,"Significance, tumor growth (intergroup comparison)",[1]; [8],** (“**” represents p<0.01)
same,"Significance, tumor growth (intergroup comparison)",[1]; [9],** (“**” represents p<0.01)
same,"Significance, tumor growth (intergroup comparison)",[1]; [10],** (“**” represents p<0.01)
same,"Significance, tumor growth (intergroup comparison)",[1]; [11],** (“**” represents p<0.01)
same,median survival time,[2]; [6],34.5 days
same,median survival time,[2]; [7],33 days
same,"Significance, survival (intergroup comparison)",[2]; [6],* (“*” represents p<0.05)
same,"Significance, survival (intergroup comparison)",[2]; [7],** (“**” represents p<0.01)
same,median survival time,[2]; [8],38.5 days
same,median survival time,[2]; [9],33 days
same,median survival time,[2]; [10],36 days
same,"Significance, survival (intergroup comparison)",[2]; [10],** (“**” represents p<0.01)
same,median survival time,[2]; [11],35 days
same,effect on Plasmodium infection,"Plasmodium yoelii; Example 1, GEM 100 mg/kg ip day 3 or day 6",certain inhibitory effect on Plasmodium yoelii but will not eliminate Plasmodium
same,effect on Plasmodium infection,"Plasmodium yoelii; Example 2, GEM single dose or divided doses, total 100 mg/kg",certain inhibitory effect on Plasmodium
same,effect on Plasmodium infection,"Plasmodium yoelii; Example 3, GEM 50 mg/kg ip day 6 and day 13",certain inhibitory effect on Plasmodium yoelii but will not eliminate Plasmodium yoelii
same,effect on weight of tumor-bearing mice,"[3]; Example 1, GEM 100 mg/kg ip, Py day 7",affected little
same,effect on weight of tumor-bearing mice,"[3]; Example 2, GEM total 100 mg/kg ip, Py day 7",affected little
same,effect on weight of tumor-bearing mice,[3]; [10],affected little
same,effect on weight of tumor-bearing mice,[3]; [11],affected little
same,effect on Plasmodium infection,"Plasmodium chabaudi; Example 4, GEM 50 mg/kg ip day 6 and day 13",inhibitory effect on Plasmodium chabaudi but will not eliminate Plasmodium
"Cc1c(O)cccc1C(=O)N[C@@H](CSc1ccccc1)[C@H](O)CN1C[C@H]2CCCC[C@H]2C[C@H]1C(=O)NC(C)(C)C [NFV, nelfinavir]","Significance, tumor growth (intergroup comparison)","[1]; Example 12, NFV 400 mg/kg×10, intraperitoneal injection, from day 10, Py day 7",** (“**” represents p<0.01)
same,median survival time,"[2]; Example 12, NFV 400 mg/kg×10 from day 10, Py day 7",34 days
same,effect on Plasmodium infection,"Plasmodium yoelii; Example 12, NFV 400 mg/kg×10",relatively small effect on Plasmodium
same,toxic and side effects on tumor-bearing mice,"[3]; Example 12, NFV 400 mg/kg×10",will not increase toxic and side effects on tumor-bearing mice
same,effect on weight of tumor-bearing mice,"[3]; Example 12, continuous administration of nelfinavir alone",relatively small effect on the weight of tumor-bearing mice
COc1cc([C@@H]2c3cc4c(cc3[C@@H](O[C@@H]3O[C@@H]5CO[C@@H](C)O[C@H]5[C@H](O)[C@H]3O)[C@H]3COC(=O)[C@H]23)OCO4)cc(OC)c1O [etoposide],effect on Plasmodium infection,"Plasmodium yoelii; Example 11, VP16 low and high dosage",obvious inhibitory effect on Plasmodium
